Assay results reported in patent publication US20250177366A1, “COMPOSITIONS AND METHODS FOR ALLEVIATING PAIN AND REDUCING ADVERSIVENESS OF STIMULI” (UNIVERSITY OF WASHINGTON, priority 2021, published 2025).

Assays:
larval zebrafish [1] = assay: Light/dark preference (phototaxis) assay; format: in vivo, Zebrafish (Danio rerio); details: for light/dark preference: last two minutes of each trial, last four trials
Procedure: Following this, whether the effects of AS1 were restricted to somatosensation or were generalizable to other aversive stimuli were tested. Thus, the effects of AS1 on light/dark preference were tested. Zebrafish larvae prefer white light environments to dark environments and this preference is inhibited by anxiolytics, analagous to studies in rodents (Lau et al., Proc. Natl. Acad. Sci. U.S.A 2011; 108:2581-2586; Burgess et al., Curr. Biol. 2010; 20:381-386). To measure light/dark preference, larval zebrafish were placed in a square arena and given the choice between a bright white light and total darkness, and the number of larvae on each side was quantified at 30 second intervals. Five 4-minute trials were performed, where the light and dark sides of the arena were reversed between trials. […] Given the precise control over stimulus luminosity in this assay, the effects of altering the intensity of the dark stimulus were explored next. In this gradient version of the phototaxis assay, larval zebrafish were given the choice between a bright white environment and one of six potential shades of darkness, ranging from light gray to solid black. […] This implies that the valence of non-painful noxious stimuli is precisely encoded in an intensity-dependent manner, and that AS1 exerts its effects in proportion to the intensity of the stimulus.
Light/dark preference (phototaxis) assay. In the light/dark preference assay, randomly-selected 6 dpf larval zebrafish (N of 30 to 40) were carefully pipetted onto a 10 cm square petri dish using a 10 mL pipette pump equipped with a glass wide-bored Pasteur pipet. As much E2 media as possible was carefully removed using the same pipet. For single incubation experiments, 30 mL of 1× solutions of the control or test chemical was added to each petri dish, and fish were incubated for 10 minutes at 28.5° C. For double incubation experiments, 15 mL of 1× solutions containing control (DMSO) or test chemicals was added to the larvae-containing petri dish. Following a ten-minute incubation period, 15 mL of the second incubation solution (1× control or test chemical +/−2× AS1) was added to the petri dish, and the fish were incubated for a second ten minute block. The final concentration of DMSO in all solutions was 1%. In all double-incubation experiments, the final concentration of AS1 was 2.5 μM. These petri dishes were then positioned over a horizontally-oriented computer monitor displaying a PowerPoint presentation. For standard light/dark preference assays, a blank white slide was initially presented for one minute, after which the presentation would automatically advance to a slide in which half of the display was black. The petri dish with larvae was positioned such that exactly half was directly over the dark side, and the other half was directly over the light side. After four minutes, the presentation automatically advanced to a slide in which the black and white halves switched places. A total of five four-minute trials, with the dark/light halves automatically switching position between trials, were recorded. For the gradient phototaxis assay, experiments were performed identically, except that the “dark” half of the powerpoint presentation was one of six shades of gray.
In all experiments, an initial still frame of video was taken during the minute where the blank slide was presented in order to quantify the total number of fish in the experiment. Following this, still frames were taken at 30 second intervals for each trial ([…]), and the number of fish present in the light half of the arena were counted. To generate the graphs that looked at swimming patterns over time in a trial (e.g., FIG. 3D), the average percentage of fish in the light at each time point (T=0, T=30, etc.) was calculated across all five trials. […]

larval zebrafish [2] = assay: Chemical attraction/aversion assay with the test chemical itself as source (inherent attractiveness); format: in vivo, Zebrafish (Danio rerio)
From the text: To confirm that AS1 itself was not attractive, the chemical attraction/aversion assay was used. […] Since the assay was modified to accommodate the inability to dissolve SKF into agarose at high concentrations (see Materials and Methods), the inherent attractiveness of AS1 was re-tested using this new format.
Chemical attraction/aversion assays. The agarose attraction/aversion assay was adapted from previously described experiments (Jordi et al., Sci. Adv. 2018; 4:1-15). For the AITC aversion assay, AITC and DMSO were added to molten 0.8% agarose to achieve a final concentration of 100 mM AITC and 2% DMSO. For the AS1 attraction/aversion assay, AS1 and DMSO were added to 0.8% molten agar to achieve final concentrations of 50 mM and 2%, respectively. To construct the test chambers, the lids of 10×10 cm square petri dishes (insert cat #and company) were lined on four sides with either the test (chemical-containing) or plain agarose (300 μL per side) and allowed to solidify. For all experiments, 30-40 randomly selected 6 dpf zebrafish were caught with a 10 mL pipette pump (Bel-Air Products, cat #: 13683C) equipped with a glass wide-bored Pasteur pipet (Fisher Scientific, cat #: 22-037-540) and deposited into a standard 10 cm diameter petri dish (Fisher Scientific, cat #: 07-202-031). As much E2 media as possible was carefully removed using the same pipette. For single incubation experiments, 30 mL of 1× solutions of the control or test chemical was added to each petri dish, and fish were incubated for 10 minutes at 28.5° C. For double incubation experiments, 15 mL of 1× solutions containing control (DMSO) or test chemicals was added to the larvae-containing petri dish. […] Swimming behavior was immediately recorded for 20 minutes using the same high-definition camcorder in the thermal preference assays.
For the SKF attraction/aversion assay, custom 10 cm×10 cm plates using clear resin (Formlabs, cat #: RS-F2-GPCL-04) and a Form 3+3D printer (Formlabs, cat #: PKG-F3-WSVC-BASIC) were designed. […] Swimming behavior was then recorded for 20 minutes. […]

## CC(C)c1ccc(C(=O)Nc2ccncc2)cc1 [AS1, 4-propan-2-yl-N-pyridin-4-ylbenzamide]
Larval zebrafish [1]; 1 μM AS1
  light/dark preference: significantly prefer the light side of the arena
Larval zebrafish [1]; 2.5 μM AS1
  gradient phototaxis: choice between bright white (shade 1) and darker shades 2-7: increasingly prefer the contrasting dark shade
  light/dark preference: significantly prefer the dark
Larval zebrafish [1]; AS1-treated vs vehicle-treated larvae
  light/dark preference, dose dependence: reversed light/dark preference in a dose-dependent manner
Larval zebrafish [2]; 50 mM AS1 in agarose on one side of square arena vs control agarose
  inherent attractiveness of chemical infused into agarose: did not approach it in a way that was appreciably different from control agarose
Larval zebrafish [2]; 2 mL in trough of 3D-printed arena, SKF 25 μM, AS1 10 μM-1 mM
  inherent attractiveness of chemical deposited into trough: neutral or mildly aversive
